Assay results published in patent publication US9796686B2, “Antibacterial quinazoline-4(3H)-one derivatives” (priority 2014, dated 2017).
≈ marks a conversion by molar mass, not a printed value. Where two headings read alike, the source gives them in different places. Values belong to the molecule of their own block, whether it stands above or below them.

Experiments:
Format in all cases: cell-based
wild-type E. coli A-1261 = test: MIC against wild-type E. coli A-1261 with or without alkaline phosphatase or esterase; conditions: Escherichia coli
Method: Minimal Inhibitory Concentrations (MICs; mg/L) were determined in cation-adjusted Mueller-Hinton Broth by a microdilution method following the description given in “Methods for Dilution Antimicrobial Susceptibility Tests for Bacteria that Grow Aerobically”, Approved standard, 7th ed., Clinical and Laboratory Standards Institute (CLSI) Document M7-A7, Wayne, Pa., U.S.A. (2006). The compound of Example 31 was tested against wild-type E. coli A-1261 in the absence of alkaline phosphatase, in the presence of an alkaline phosphatase and in the presence of an esterase. The corresponding antibacterial test results are given in Table 2 hereafter (MICs in mg/L).

P. aeruginosa ATCC27853 = test: Bacterial growth minimal inhibitory concentration, microdilution in cation-adjusted Mueller-Hinton Broth (CLSI M7-A7); conditions: Pseudomonas aeruginosa, ATCC27853; quinolone-sensitive strain; read-out: MIC for P. aeruginosa ATCC27853
Method: (§1) Minimal Inhibitory Concentrations (MICs; mg/L) were determined in cation-adjusted Mueller-Hinton Broth by a microdilution method following the description given in “Methods for Dilution Antimicrobial Susceptibility Tests for Bacteria that Grow Aerobically”, Approved standard, 7th ed., Clinical and Laboratory Standards Institute (CLSI) Document M7-A7, Wayne, Pa., U.S.A. (2006).
(§2) All Example compounds were tested against several Gram-positive and Gram-negative bacteria. […] K. pneumoniae A-651 is a multiply-resistant strain (in particular quinolone-resistant), while E. coli ATCC25922 and P. aeruginosa ATCC27853 are quinolone-sensitive strains.

K. pneumoniae A-651 = test: as above; conditions: Klebsiella pneumoniae, A651; multiply-resistant strain (in particular quinolone-resistant); read-out: MIC for K. Pneumoniae A-651
Method: as §1, §2

E. coli ATCC25922 = test: as above; conditions: Escherichia coli, ATCC25922; quinolone-sensitive strain; read-out: MIC for E. coli ATCC25922
Method: as §1, §2

SMILES: C[C@@](CCn1cnc2cc(C#CC#CC3(COP(=O)(O)O)CC3)ccc2c1=O)(C(=O)NO)S(C)(=O)=O [Example 31, (R)-(1-((3-(4-(hydroxyamino)-3-methyl-3-(methylsulfonyl)-4-oxobutyl)-4-oxo-3,4-dihydroquinazolin-7-yl)buta-1,3-diyn-1-yl)cyclopropyl)methyl dihydrogen phosphate]
MIC (wild-type E. coli A-1261; alkaline phosphatase 2 i.U./mL, read-out: MIC for E. coli A-1261 In the presence of an alkaline phosphatase (2 i.U./mL)): 0.5 µg/mL
MIC (wild-type E. coli A-1261; esterase 10 i.U./mL, read-out: MIC for E. coli A-1261 In the presence of an esterase (10 i.U./mL)): > 16 µg/mL
MIC (wild-type E. coli A-1261; no alkaline phosphatase or esterase, read-out: MIC for E. coli A-1261 In the absence of alkaline phosphatase or esterase): > 16 µg/mL

SMILES: C[C@@](CCn1cnc2cc(C#Cc3ccc(C4(CO)CC4)cc3)ccc2c1=O)(C(=O)NO)S(C)(=O)=O [Example 16, (R)-N-hydroxy-4-(7-((4-(1-(hydroxymethyl)cyclopropyl)phenyl)ethynyl)-4-oxoquinazolin-3(4H)-yl)-2-methyl-2-(methylsulfonyl)butanamide]
MIC (P. aeruginosa ATCC27853): 4 µg/mL (≈ 7.85 µM)
MIC (K. pneumoniae A-651): 0.25 µg/mL (≈ 0.491 µM)
MIC (E. coli ATCC25922): 0.125 µg/mL (≈ 0.245 µM)

SMILES: C[C@@](CCn1cnc2cc(C#CC#CC3(CO)CC3)ccc2c1=O)(C(=O)NO)S(C)(=O)=O [Example 6, (R)-N-hydroxy-4-(7-((1-(hydroxymethyl)cyclopropyl)buta-1,3-diyn-1-yl)-4-oxoquinazolin-3(4H)-yl)-2-methyl-2-(methylsulfonyl)butanamide]
MIC (P. aeruginosa ATCC27853): 2 µg/mL (≈ 4.37 µM)
MIC (K. pneumoniae A-651): 1 µg/mL (≈ 2.19 µM)
MIC (E. coli ATCC25922): 0.25 µg/mL (≈ 0.546 µM)

Results, then the molecule that gave them:

MIC (P. aeruginosa ATCC27853): 4 µg/mL (≈ 8.27 µM)
MIC (K. pneumoniae A-651): 0.25 µg/mL (≈ 0.517 µM)
MIC (E. coli ATCC25922): 0.125 µg/mL (≈ 0.259 µM)
SMILES: C[C@@](CCn1cnc2cc(C#Cc3ccc(CCO)cc3)ccc2c1=O)(C(=O)NO)S(C)(=O)=O [Example 8, (R)-N-hydroxy-4-(7-((4-(2-hydroxyethyl)phenyl)ethynyl)-4-oxoquinazolin-3(4H)-yl)-2-methyl-2-(methylsulfonyl)butanamide]

MIC (P. aeruginosa ATCC27853): 16 µg/mL (≈ 35.9 µM)
MIC (K. pneumoniae A-651): 8 µg/mL (≈ 18 µM)
MIC (E. coli ATCC25922): 2 µg/mL (≈ 4.49 µM)
SMILES: CC(CCn1cnc2cc(-c3ccc(CO)cc3)ccc2c1=O)(C(=O)NO)S(C)(=O)=O (racemic) [RE7, (RS)-N-hydroxy-4-(7-(4-(hydroxymethyl)phenyl)-4-oxoquinazolin-3(4H)-yl)-2-methyl-2-(methylsulfonyl)butanamide]
